Measured values published in patent US20260206756A1, “COMPOUNDS AND METHODS OF TREATING OR PREVENTING A BACTERIAL INFECTION IN A PLANT” (Ohio State Innovation Foundation, priority 2023, published 2026).

Test system: pollinator honeybees
Assay: Honeybee acute topical contact toxicity bioassay
Type: in vivo
Settings: 48 h, PCs 200 μM, thiamethoxam 0.35 μg per bee
Procedure: Toxicity of the ten PCs on pollinator honeybees. To determine whether the ten selected PCs were toxic to honeybees, an acute topical bioassay was used as recommended by the Ecological Effects Test Guidelines (OCSPP 8503020: Honeybee Acute Contact Toxicity Test). Frames of late stage capped brood were collected from two healthy colonies headed by New Carniolan queens maintained at The Ohio State University Wooster Campus. New adult bees were allowed to emerge in a dark incubator maintained at 32° C. and 60-80% relative humidity and brushed into bulk storage cages daily. Bees were fed sucrose in water (1:1 w/w) and aged for three days in the incubator. Cages of 3-day-old honeybees were anesthetized using carbon dioxide for 2 min and separated into groups of 20 housed in paper cups (UNIQ 6 oz Cups; Frozen Dessert Supplies, Rexburg, Idaho, USA) covered with #20 cotton cheesecloth. The ten PCs were prepared at 200 μM concentration in DMSO. Small groups of honeybees were anaesthetized again with 30 s of carbon dioxide before topical application. The honeybees were individually treated by topically applying lul of the PCs on the dorsal side of thorax using a micro applicator (Hamilton PB-600, Reno, Nevada, USA). […] The mortality of the bees was recorded daily for 48 h. […]

CN1COCN(Cc2cnc(Cl)s2)/C1=N\[N+](=O)[O-] [thiamethoxan, thiamethoxam] was tested. Which honeybee mortality did it give?
The honeybee mortality was 100%.
